{"source": "patent US10881678B2", "about": "“Cytotoxic agents for the treatment of cancer” (CytRx Corporation, priority 2013, dated 2021)", "key": {"[1]": {"experiment": "Drug detection in cryosections of brain tissues of tumor-bearing mice (immunohistochemistry, confocal)", "details": "drug fluorescence", "method": "Immunohistochemistry: For histologic analysis, brain tissues from control and drug-treated tumor-bearing mice were harvested, snap frozen in optimal cutting temperature (OCT) compound and stored at −80° C. Cryostat sections were placed on slides and fixed in zinc-buffered formalin. Slides were blocked with 5% goat serum in 1% BSA followed by overnight incubation with primary antibodies against CD31 (102402, Biolegend, San Diego, Calif.), Ki-67 (ab156956, Abcam, Cambridge, Mass.), Vimentin (ab92547, Abcam), cleaved-Caspase-3 (CP229B, Biocare Medical), and GFAP (NB300-141, Novus Biologicals, Littleton, Colo.). Slides were then incubated with primary antibody source-specific secondary antibodies conjugated to Alexa Fluor 488 or 635 and DAN as a nuclear counterstain. The detection fluorophores used were limited to those around the inherent fluorescence spectra of doxorubicin (λex=480 nm, λem=550-590 nm) (22876313) to avoid bleed-through and enable co-detection of the drug with respect to certain antigens. Epifluorescence photomicrographs were captured at 100× and 400× magnification using an FV1000 confocal microscope (Olympus of America, Center Valley, Pa.) equipped with multi-Argon, 405, 559, and 635 diodes. Quantitative analysis was performed with Slidebook software (Intelligent Imaging Innovations, Denver, Colo.)."}, "[2]": {"experiment": "Aldoxorubicin retention in brain tumors and surrounding brain tissue by HPLC", "type": "in vivo, mice", "details": "i.v. 24 mg/kg, 6 and 24 h after injection", "procedure": "(§1) HPLC System and Conditions: The HPLC system used was an Agilent 1100 Series (Wilmington, Del., USA) equipped with a scanning fluorescent detector with excitation and emission wavelengths set at 480 and 560 nm, respectively. Agilent Chemstation software was used for data acquisition. Separation was achieved on a Waters Spherisorb ODS2 column (4 mm×250 mm, 5 μm) fitted with a guard cartridge (BDS-Hypersil-C18, 5 μM). Elution was performed with mobile phase comprised of 65% 50 mM monosodium phosphate, pH 2.2, and 35% acetonitrile. A constant flow rate of 1.25 ml/min was used for the separation. The column was set to 28° C. and the injection volume was 25 μl.\nSample preparation: For quantification of aldoxorubicin in brain tissue and brain tumors, mice were euthanized by CO2 inhalation 6 and 24 h after aldoxorubicin injection (24 mg/kg/inj), brains were harvested and tumors were resected. The harvested tissues were stored at −80° C. until analysis.\nFrozen samples were thawed at room temperature and homogenized in sterile saline using a PowerGen Model 125 homogenizer (Fisher Scientific) to obtain final tissue concentrations (w/v) of 150 mg/ml. Perchloric acid (35%, v/v) was then added to a […] aliquot followed by 25 μl of mobile phase. […] In the tissue samples analyzed, aldoxorubicin eluted with the retention time of doxorubicin."}, "[3]": {"experiment": "Maximum tolerated dose in mice", "type": "in vivo", "details": "intravenous"}, "[4]": {"experiment": "Plasma and tissue distribution by HPLC in intracranial tumor-bearing mice", "type": "in vivo", "procedure": "as §1, with “An” for “The HPLC system used was an”, “Series HPLC System” for “Series”, “having” for “equipped with”, “respectively, was used.” for “respectively.”, “containing” for “comprised of”, “65%” for “65% 50 mM”\nSample preparation: Aldoxorubicin, 24 mg/kg/inj (75% of the MTD), was administered in intracranial GBM tumor-bearing mice through tail vein injection, and after 4, 8, 16, and 24 h after injection, mice (3 animals at each time point) were euthanized by CO2 gas. Blood samples were collected by heart puncture in heparinized tubes, and centrifuged for plasma separation. Immediately after blood sampling, organs (brain, heart, kidney liver and lung) were surgically removed. The plasma and tissues were stored at −80° C. until analysis.\nFrozen samples were thawed at room temperature and homogenized in sterile saline using a PowerGen Model 125 homogenizer (Fisher Scientific) to obtain final tissue concentrations (w/v) of 150 mg/ml for the liver and brain; 125 mg/ml for the lung, heart and muscle; and 100 mg/ml for kidney. Perchloric acid (35%, v/v) was added to a 20 μl aliquot of plasma or tissue samples followed by 25 μl of mobile phase. The samples were vortexed followed by centrifugation at 10,000×g for 10 min. and 25 μl of the supernatant was applied to the HPLC column."}, "[5]": {"experiment": "Aldoxorubicin/doxorubicin detection in brain tumors by stereomicroscope epifluorescence", "type": "in vivo, mice", "details": "24 h following the last injection; epifluorescence of whole brains", "procedure": "Aldoxorubicin/doxorubicin detection in brain tumors: Tumor-bearing mice were given intravenous injections of aldoxorubicin or doxorubicin as described above in Example 1. Mice were euthanized 24 h following the last injection. Brains were harvested and imaged using an MVX10 stereomicroscope (Olympus of America) equipped for brightfield and epifluorescence with filters encompassing doxorubicin-specific wavelengths to visualize drug accumulation."}, "[6]": {"system": "U87-luc glioma cells", "experiment": "Intracranial U87-luc glioblastoma xenograft in mice, Example 1 (bioluminescent imaging, survival)", "type": "in vivo", "details": "for difference in tumor growth between 8 days and 22 days within the group: aldoxorubicin p>0.05, doxorubicin p<0.05; for survival time compared with vehicle-treated mice (Kaplan-Meier): result in words, aldoxorubicin also vs doxorubicin-treated group", "procedure": "Intracranial implantation of U87-luc glioma cells in mice: A U87MG subline, U87-luc with a luciferase reporter gene was used for establishing intracranial human glioblastoma tumors. Female BALB/c (nu/nu) mice, 6-8 weeks of age, were anesthetized with a ketamine/xylazine cocktail solution. Animals were secured in a Harvard Apparatus stereotaxic head frame, a 1 cm midline scalp incision was made, and 5×10^5 cells in 5 μL serum-free DMEM were injected into the left striatum (coordinates: 2.5 mm lateral and 0.5 mm posterior to the bregma) through a burr hole in the skull using a 10 μl Hamilton syringe to deliver tumor cells to a 3.5 mm intraparenchymal depth. The burr hole in the skull was sealed with bone wax and the incision closed using wound glue. Tumor growth was evaluated by bioluminescent imaging.\nAldoxorubicin treatment of mice: The study consisted of 8 vehicle-treated control mice (group C), 8 doxorubicin-treated mice (group D), and 8 aldoxorubicin-treated mice (group A). Treatment was initiated twelve days after intracranial implantation of glioblastoma multiforme (GBM) cells. Vehicle (10 mM sodium phosphate, 5% D-(+)-glucose, pH 6.4) or aldoxorubicin was administered intravenously for a total of six injections (i.e., 12, 19, 26, 42, 50, and 56, days after cell implantation). All the doses were ˜75% of the maximum tolerated dose (MTD) of 32 mg/kg/inj in mice except that the dose given after 50 days of cell implantation was 50% of the MTD. Doxorubicin was administered intravenously for a total of two injections (i.e., 12 and 19 days after cell implantation) with ˜75% of the MTD of 8 mg/kg/inj. Both the drugs and the vehicle were administered using an injection volume of 0.15 ml.\nIn vivo imaging of intracranial tumors: Intracranial tumor growth was quantified by bioluminescent imaging using an in vivo imaging system (Xenogen, Palo Alto, Calif.). All mice were given an IP injection of 100 μl of 30 mg/ml D-luciferin (PerkinElmer) suspended in DPBS 10 minutes before imaging to provide a substrate for the luciferase enzyme. Prior to imaging, mice were anesthetized with inhalation of isoflurane gas. Images were captured using the Xenogen Ivis 200 imaging system and quantified with Living Image 4.1 software from Xenogen for a region of interest that encompassed the head of the mouse. Image intensities were expressed as photons/sec/cm^2/sr.\nStatistical Analysis: The log-rank test was used to create Kaplan-Meier survival curves to compare survival between control and drug-treated mice using the Statistical Analysis Software of SAS Institute, Inc., Cary, N.C. Differences between groups were assessed using the unpaired Student's t test. AR values are shown as the mean±standard deviation. A p value≤0.05 was considered statistically significant."}, "[7]": {"system": "U87-luc glioma cells", "experiment": "Intracranial U87-luc glioblastoma xenograft in mice, Example 2 (bioluminescent imaging, survival)", "type": "in vivo", "procedure": "Female mice (6-8 weeks of age) were implanted intracranially with U87-luc subline with luciferase reporter gene to establish human glioblastoma tumors. Tumor growth was evaluated by bioluminescent imaging using D-luciferin substrate. 8 mice were treated with aldoxorubicin and 8 were treated with phosphate buffer saline (vehicle). Treatment started 9 days after implantation of the GBM cells. Aldoxorubicin or vehicle was administered i.v. once a week for three weeks (9, 16, and 23 days after cell implantation). The first two doses of aldoxorubicin were 75% and the third dose was 50% of the MTD of 32 mg/kg/injection in mice."}, "[8]": {"details": "literature; cited from earlier work"}, "[9]": {"system": "Glioblastoma cell lines", "details": "literature; cited from earlier work"}, "[10]": {"system": "glioblastoma growing in the brain", "details": "literature; cited from earlier work"}, "[11]": {"target": "P-glycoprotein efflux pumps (Homo sapiens, UniProt P08183)", "sequence (P08183 whole entry)": "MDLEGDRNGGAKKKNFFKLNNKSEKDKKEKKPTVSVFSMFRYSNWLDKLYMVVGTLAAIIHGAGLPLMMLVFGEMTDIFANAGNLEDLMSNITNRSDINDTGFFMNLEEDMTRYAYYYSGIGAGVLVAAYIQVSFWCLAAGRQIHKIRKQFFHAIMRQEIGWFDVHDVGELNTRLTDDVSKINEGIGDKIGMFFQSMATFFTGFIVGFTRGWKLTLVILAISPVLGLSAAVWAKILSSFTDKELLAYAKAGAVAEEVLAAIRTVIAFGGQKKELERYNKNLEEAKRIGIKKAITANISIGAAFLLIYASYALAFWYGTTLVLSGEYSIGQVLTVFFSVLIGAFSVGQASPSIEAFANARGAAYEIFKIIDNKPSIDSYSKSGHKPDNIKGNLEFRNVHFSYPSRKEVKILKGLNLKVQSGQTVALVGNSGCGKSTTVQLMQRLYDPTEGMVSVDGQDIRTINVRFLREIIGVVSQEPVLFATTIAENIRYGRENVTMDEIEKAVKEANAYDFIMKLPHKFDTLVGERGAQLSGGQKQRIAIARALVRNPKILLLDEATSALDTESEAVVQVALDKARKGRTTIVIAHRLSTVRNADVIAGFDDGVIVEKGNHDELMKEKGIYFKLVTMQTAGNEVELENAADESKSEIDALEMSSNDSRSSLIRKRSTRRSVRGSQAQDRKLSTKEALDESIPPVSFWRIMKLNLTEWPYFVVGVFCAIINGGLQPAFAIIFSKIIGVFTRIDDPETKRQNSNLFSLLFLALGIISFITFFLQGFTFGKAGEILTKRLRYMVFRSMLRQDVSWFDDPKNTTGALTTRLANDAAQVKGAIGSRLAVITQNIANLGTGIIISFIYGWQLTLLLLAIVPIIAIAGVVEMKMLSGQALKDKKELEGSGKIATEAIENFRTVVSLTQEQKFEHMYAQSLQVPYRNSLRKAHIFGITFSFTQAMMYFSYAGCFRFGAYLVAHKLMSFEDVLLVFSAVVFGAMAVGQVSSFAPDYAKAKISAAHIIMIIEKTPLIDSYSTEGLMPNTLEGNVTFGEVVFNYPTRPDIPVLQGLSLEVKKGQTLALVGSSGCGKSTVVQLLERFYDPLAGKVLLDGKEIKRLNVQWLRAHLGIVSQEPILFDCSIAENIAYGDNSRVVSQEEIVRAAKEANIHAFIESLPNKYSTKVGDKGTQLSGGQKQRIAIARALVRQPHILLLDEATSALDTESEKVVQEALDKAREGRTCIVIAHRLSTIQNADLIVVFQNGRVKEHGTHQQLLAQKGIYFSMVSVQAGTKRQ", "details": "literature; cited from earlier work"}, "[12]": {"details": "i.v. 24 mg/kg (~75% of the MTD)"}, "[13]": {"details": "22 days after implantation, aldoxorubicin treatment for 2 weeks, radiance"}, "[14]": {"details": "administered intravenously, intracranial human GBM tumors"}}, "note": "Entries after “also recorded” stand apart in the source; their conditions may differ."}
{"smiles": "COc1cccc2c1C(=O)c1c(O)c3c(c(O)c1C2=O)C[C@@](O)(/C(CO)=N/NC(=O)CCCCCN1C(=O)C=CC1=O)C[C@@H]3OC1CC(N)C(O)C(C)O1.Cl", "note": "(some centres unmarked) [aldoxorubicin]", "values": [{"measurement": "accumulation in brain tumor and normal brain tissue", "setting": "[1]", "result": "accumulates in the brain tumor but not in normal brain tissue"}, {"measurement": "retention in tumor tissues relative to surrounding brain tissues", "setting": "[2]", "result": "3- to 4 fold"}, {"measurement": "maximum tolerated dose (MTD)", "setting": "[3]", "result": 32, "unit": "mg/kg/inj"}, {"measurement": "levels in the brain over time", "setting": "[4]; from 4 h to 24 h, total brain tissue of tumor-bearing mice", "result": "remained almost same"}, {"measurement": "plasma concentration relative to that in the brain", "setting": "[4]; [12]", "result": "more than 200 fold"}, {"measurement": "plasma concentration relative to the mean concentration in liver, heart, lung and kidney", "setting": "[4]; [12]", "result": "more than 20 fold"}, {"measurement": "time of highest drug concentration", "setting": "[4]; plasma and other organs except brain, i.v. 24 mg/kg (~75% of the MTD)", "result": 4, "unit": "h"}, {"measurement": "time to reach nearly 50% of its concentration", "setting": "[4]; plasma and other tissues except the brain", "result": 20, "unit": "h"}, {"measurement": "accumulation in glioblastoma tumors", "setting": "[5]", "result": "accumulates in glioblastoma tumors"}, {"measurement": "average tumor size relative to the control group", "setting": "[6]; [13]", "result": 28, "unit": "%"}, {"measurement": "average tumor size relative to the doxorubicin treatment group", "setting": "[6]; [13]", "result": 40, "unit": "%"}, {"measurement": "survival of animals 34 days after tumor implantation", "setting": "[6]; 34 days, group of 8 mice", "result": "remained alive"}, {"measurement": "overall antitumor result", "setting": "[6]; [14]", "result": "induces tumor regression and significantly increases survival"}, {"measurement": "animals still alive", "setting": "[6]; after 41 days", "result": "seven of the eight"}, {"measurement": "difference in tumor growth between 8 days and 22 days within the group", "setting": "[6]; radiance", "result": "no relative difference in tumor growth"}, {"measurement": "survival time compared with vehicle-treated mice (Kaplan-Meier)", "setting": "[6]", "result": "increased survival times; also recorded: survived a longer time"}, {"measurement": "mice with tumor regrowth", "setting": "[7]; Day 29", "result": 2}, {"measurement": "mice dead", "setting": "[7]; Day 29, group of 8 mice", "result": 1}, {"measurement": "other mice with tumor regrown", "setting": "[7]; Day 33", "result": 4}, {"measurement": "mice dead", "setting": "[7]; Day 33, group of 8 mice", "result": 3}, {"measurement": "overall antitumor result", "setting": "[7]; [14]", "result": "induces tumor regression and increases survival"}, {"measurement": "mice with detectable tumor", "setting": "[7]; at 21 days, group of 8 mice", "result": 1}, {"measurement": "survival compared with vehicle (Kaplan-Meier)", "setting": "[7]; result in words", "result": "survived longer"}]}
{"smiles": "COc1cccc2c1C(=O)c1c(O)c3c(c(O)c1C2=O)C[C@@](O)(C(=O)CO)C[C@@H]3O[C@H]1C[C@H](N)[C@H](O)[C@H](C)O1", "note": "[doxorubicin, reference compound]", "values": [{"measurement": "accumulation in brain tumor and normal brain tissue", "setting": "[1]", "result": "not found in any appreciable amount in either the tumor or normal brain"}, {"measurement": "ability to cross the BBB", "setting": "[8]", "result": "lacks the ability to cross the BBB"}, {"measurement": "free concentration in glioma tissues", "setting": "[8]", "result": "below effective levels"}, {"measurement": "maximum tolerated dose (MTD)", "setting": "[3]", "result": 8, "unit": "mg/kg/inj"}, {"measurement": "accumulation in glioblastoma tumors", "setting": "[5]", "result": "not doxorubicin accumulates"}, {"measurement": "effect on glioblastoma cell lines", "setting": "[9]", "result": "driven to apoptosis following growth arrest"}, {"measurement": "time after tumor implantation within which all animals died", "setting": "[6]; group of 8 mice", "result": "≤ 34", "unit": "days"}, {"measurement": "animals died", "setting": "[6]; in 22 days, group of 8 mice", "result": 2}, {"measurement": "difference in tumor growth between 8 days and 22 days within the group", "setting": "[6]; radiance", "result": "a relative difference in tumor growth"}, {"measurement": "survival time compared with vehicle-treated mice (Kaplan-Meier)", "setting": "[6]", "result": "no difference in the survival time; also recorded: no difference in the survival curves"}, {"measurement": "effect on glioblastoma growing in the brain", "setting": "[10]", "result": "no effect"}, {"measurement": "P-glycoprotein efflux pump substrate", "setting": "[11]", "result": "substrate of the P-glycoprotein efflux pumps"}]}
